According to US20250057969A1, “CONJUGATES COMPRISING CLEAVABLE LINKERS” (priority 2023, published 2025):
Numbered stars: 1 amine (or outer) side, 2 acyl side, 3 side chain; on linkers, the order of the positions; unused ones are H or OH. Square brackets hold non-standard residues; d marks the D form. Peptide text beside a SMILES is read from it. * marks the point of attachment. X1 = O=C(O)[C@H]1O[C@@H](Oc2ccc(COC(=O)[*:2])cc2N[*:1])[C@H](O)[C@@H](O)[C@@H]1O; CH3O(CH2CH2O)11CH2CH2CO = COCCOCCOCCOCCOCCOCCOCCOCCOCCOCCOCCOCCC(=O)*; Dolaproine = CO[C@@H]([C@@H]1CCCN1)[C@@H](C)C(=O)O; Hexanoyl(6-maleimido) = O=C1C=CC(=O)N1CCCCCC(=O)*; Propanoyl(3-maleimido) = O=C1C=CC(=O)N1CCC(=O)*; Dil = CC[C@H](C)[C@H](NC)[C@@H](CC(=O)O)OC; PABC = O=C(OCc1ccc(N[*:1])cc1)[*:2]; X2 = C[C@@H](N*)[C@@H](O)c1ccccc1; Cit = NC(=O)NCCC[C@H](N)C(=O)O; NMeV = CN[C@H](C(=O)O)C(C)C; βAla = NCCC(=O)O

Experiments:
Assay type in all cases: biochemical
[1] = molecular target: T1, Human neutrophil elastase (Homo sapiens, UniProt P08246); assay: Linker-Payload enzymatic cleavage with human neutrophil elastase; settings: 0.67 μM enzyme, 67 μM Linker-Payload, pH 7.4, 37° C., 24 hours
T1 sequence (P08246 30-267): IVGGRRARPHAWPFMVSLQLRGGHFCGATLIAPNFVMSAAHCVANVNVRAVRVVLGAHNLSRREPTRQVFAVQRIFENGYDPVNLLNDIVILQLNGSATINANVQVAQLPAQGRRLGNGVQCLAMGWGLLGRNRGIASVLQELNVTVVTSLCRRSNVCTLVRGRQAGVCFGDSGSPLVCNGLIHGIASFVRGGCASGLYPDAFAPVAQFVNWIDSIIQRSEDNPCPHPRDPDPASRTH
Method: (§1) 0.67 μM Human neutrophil elastase was added to 67 μM Linker-Payload (1:100) in Tris Buffered Saline, pH 7.4. The mixture was incubated at 37° C. for a duration of 24 hours with intermediate timepoints collected and diluted 1:1 with buffer containing acetonitrile, water and formic acid. The sample was measured by reverse-phase HPLC with data quantified against a standard curve.

β-glucuronidase = molecular target: T2, β-glucuronidase (Homo sapiens, UniProt P08236); assay: Linker-Payload enzymatic cleavage with β-glucuronidase; settings: 4 nM enzyme, 40 μM Linker-Payload, pH 5.0, 37° C., 24 hours
T2 sequence (P08236 23-651): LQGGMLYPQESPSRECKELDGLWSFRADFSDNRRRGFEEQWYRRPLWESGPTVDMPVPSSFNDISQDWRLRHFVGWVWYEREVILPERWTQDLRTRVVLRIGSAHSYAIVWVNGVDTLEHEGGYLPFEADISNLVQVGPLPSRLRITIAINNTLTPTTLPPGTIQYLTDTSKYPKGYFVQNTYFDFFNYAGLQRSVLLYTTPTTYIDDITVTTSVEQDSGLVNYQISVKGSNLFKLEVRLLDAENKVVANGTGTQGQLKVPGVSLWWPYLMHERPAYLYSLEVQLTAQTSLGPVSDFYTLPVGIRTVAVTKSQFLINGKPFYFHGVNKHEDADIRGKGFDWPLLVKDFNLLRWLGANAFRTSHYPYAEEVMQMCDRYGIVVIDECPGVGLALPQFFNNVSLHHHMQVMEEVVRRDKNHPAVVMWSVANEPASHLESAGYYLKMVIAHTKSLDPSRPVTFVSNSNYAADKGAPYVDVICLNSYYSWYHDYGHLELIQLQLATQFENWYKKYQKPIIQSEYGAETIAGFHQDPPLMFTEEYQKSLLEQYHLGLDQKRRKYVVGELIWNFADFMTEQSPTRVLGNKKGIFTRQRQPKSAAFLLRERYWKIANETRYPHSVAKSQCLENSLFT
Method: as §1, with “4 nM β-glucuronidase” for “0.67 μM Human neutrophil elastase”, “40” for “67”, “(1:10,000)” for “(1:100)”, “50 mM sodium acetate,” for “Tris Buffered Saline,”, “5.0.” for “7.4.”

Cathepsin B = Cathepsin B (Homo sapiens, UniProt P07858); assay: Linker-Payload enzymatic cleavage with Cathepsin B; settings: 0.14 μM enzyme, 70 μM Linker-Payload, pH 5.0, 37° C., 24 hours
Method: as §1, with “0.14” for “0.67”, “Cathepsin B” for “Human neutrophil elastase”, “70” for “67”, “(1:500)” for “(1:100)”, “50 mM sodium acetate, 1 mM DTT,” for “Tris Buffered Saline,”, “5.0.” for “7.4.”

SMILES | cleavage in the presence of human neutrophil elastase (FIG. 1C) [1] | cleavage in the presence of β-glucuronidase (FIG. 1A) (β-glucuronidase) | cleavage rate in the presence of β-glucuronidase relative to LP7 and LP8 (FIG. 1E) (β-glucuronidase) | cleavage in the presence of cathepsin B (FIG. 1B) (Cathepsin B) | cleavage in the presence of human neutrophil elastase (FIG. 1D) [1]
CC[C@H](C)[C@@H]([C@@H](CC(=O)N1CCC[C@H]1[C@H](OC)[C@@H](C)C(=O)N[C@H](C)[C@@H](O)c1ccccc1)OC)N(C)C(=O)[C@@H](NC(=O)[C@H](C(C)C)N(C)C(=O)OCc1ccc(NC(=O)[C@H](CCCNC(N)=O)NC(=O)[C@@H](NC(=O)CCCCCN2C(=O)C=CC2=O)C(C)C)cc1)C(C)C [LP1, maleimidocaproyl-valine-citrulline-p-amrninobenzoyloxycajrbonyl-MMAE, reference compound] ({Hexanoyl(6-maleimido)}-V[Cit][PABC][NMeV]V[Dil][Dolaproine]-X2) | underwent more rapid cleavage |  |  |  | 
CC[C@H](C)[C@@H]([C@@H](CC(=O)N1CCC[C@H]1[C@H](OC)[C@@H](C)C(=O)N[C@H](C)[C@@H](O)c1ccccc1)OC)N(C)C(=O)[C@@H](NC(=O)[C@H](C(C)C)N(C)C(=O)OCc1ccc(O[C@@H]2O[C@H](C(=O)O)[C@@H](O)[C@H](O)[C@H]2O)c(CNC(=O)CCNC(=O)COC2(CNC(=O)CCN3C(=O)C=CC3=O)CN(C(=O)CCOCCOCCOCCOCCOCCOCCOCCOCCOCCOCCOCCOC)C2)c1)C(C)C [LP2] | did not undergo rapid cleavage | underwent significant cleavage | underwent slower cleavage than both LP7 (Reference) and LP8 (Reference) | neither LP2 nor LP3 underwent rapid cleavage | did not undergo rapid cleavage
CC[C@H](C)[C@@H]([C@@H](CC(=O)N1CCC[C@H]1[C@H](OC)[C@@H](C)C(=O)N[C@H](C)[C@@H](O)c1ccccc1)OC)N(C)C(=O)[C@@H](NC(=O)[C@H](C(C)C)N(C)C(=O)OCc1ccc(O[C@@H]2O[C@H](C(=O)O)[C@@H](O)[C@H](O)[C@H]2O)c(CNC(=O)COC2(CNC(=O)CCN3C(=O)C=CC3=O)CN(C(=O)CCOCCOCCOCCOCCOCCOCCOCCOCCOCCOCCOCCOC)C2)c1)C(C)C [LP3] | did not undergo rapid cleavage | underwent significant cleavage |  | neither LP2 nor LP3 underwent rapid cleavage | 
CC[C@H](C)[C@@H]([C@@H](CC(=O)N1CCC[C@H]1[C@H](OC)[C@@H](C)C(=O)N[C@H](C)[C@@H](O)c1ccccc1)OC)N(C)C(=O)[C@@H](NC(=O)[C@H](C(C)C)N(C)C(=O)OCc1ccc(O[C@@H]2O[C@H](C(=O)O)[C@@H](O)[C@H](O)[C@H]2O)c(CNC(=O)CCNC(=O)[C@H](CCCCNC(=O)CCOCCOCCOCCOCCOCCOCCOCCOCCOCCOCCOCCOC)NC(=O)CCN2C(=O)C=CC2=O)c1)C(C)C [LP7, reference compound] |  |  |  |  | did not undergo rapid cleavage
CC[C@H](C)[C@@H]([C@@H](CC(=O)N1CCC[C@H]1[C@H](OC)[C@@H](C)C(=O)N[C@H](C)[C@@H](O)c1ccccc1)OC)N(C)C(=O)[C@@H](NC(=O)[C@H](C(C)C)N(C)C(=O)OCc1ccc(O[C@@H]2O[C@H](C(=O)O)[C@@H](O)[C@H](O)[C@H]2O)c(NC(=O)CCNC(=O)[C@H](CCCCNC(=O)CCOCCOCCOCCOCCOCCOCCOCCOCCOCCOCCOCCOC)NC(=O)CCN2C(=O)C=CC2=O)c1)C(C)C [LP8, reference compound] ({Propanoyl(3-maleimido)}-K(CH3O(CH2CH2O)11CH2CH2CO)[βAla][X1][NMeV]V[Dil][Dolaproine]-X2) |  |  |  |  | did not undergo rapid cleavage
